Reference: the kinase profiling compilation of Christmann-Franck et al. (2016)

Key:
[1] = biological target: AAK1 (human) (UniProt Q2M2I8); experiment: KINOMEscan competition binding; details: compound 10.0 µM
[2] = biological target: ACVR2B (human) (UniProt Q13705); experiment: KINOMEscan competition binding; details: compound 10.0 µM
[3] = biological target: BMPR2 (human) (UniProt Q13873); experiment: KINOMEscan competition binding; details: compound 10.0 µM
[4] = biological target: CIT (human) (UniProt O14578); experiment: KINOMEscan competition binding; details: compound 10.0 µM
[5] = biological target: CLK2 (human) (UniProt P49760); experiment: KINOMEscan competition binding; details: compound 10.0 µM
[6] = biological target: CSNK2A1 (human) (UniProt P68400); experiment: KINOMEscan competition binding; details: compound 10.0 µM
[7] = biological target: CSNK2A2 (human) (UniProt P19784); experiment: KINOMEscan competition binding; details: compound 10.0 µM
[8] = biological target: DAPK1 (human) (UniProt P53355); experiment: KINOMEscan competition binding; details: compound 10.0 µM
[9] = biological target: DAPK2 (human) (UniProt Q9UIK4); experiment: KINOMEscan competition binding; details: compound 10.0 µM
[10] = biological target: DAPK3 (human) (UniProt O43293); experiment: KINOMEscan competition binding; details: compound 10.0 µM
[11] = biological target: EGFR (human) (UniProt P00533); experiment: KINOMEscan competition binding; details: compound 10.0 µM
[12] = system: EGFR (human), P00533 [747-751 del / S ins]; experiment: KINOMEscan competition binding; details: compound 10.0 µM
[13] = system: EGFR (human), P00533 [752-759 del]; experiment: KINOMEscan competition binding; details: compound 10.0 µM
[14] = system: EGFR (human), P00533 [A750P; 747-749 del]; experiment: KINOMEscan competition binding; details: compound 10.0 µM
[15] = system: EGFR (human), P00533 [G719C; 746-750 del]; experiment: KINOMEscan competition binding; details: compound 10.0 µM
[16] = system: EGFR (human), P00533 [G719S]; experiment: KINOMEscan competition binding; details: compound 10.0 µM
[17] = system: EGFR (human), P00533 [L858R]; experiment: KINOMEscan competition binding; details: compound 10.0 µM
[18] = system: EGFR (human), P00533 [L861Q]; experiment: KINOMEscan competition binding; details: compound 10.0 µM
[19] = system: EGFR (human), P00533 [P753S; 747-752 del]; experiment: KINOMEscan competition binding; details: compound 10.0 µM
[20] = biological target: GAK (human) (UniProt O14976); experiment: KINOMEscan competition binding; details: compound 10.0 µM
[21] = biological target: HIPK1 (human) (UniProt Q86Z02); experiment: KINOMEscan competition binding; details: compound 10.0 µM
[22] = biological target: MAPK15 (human) (UniProt Q8TD08); experiment: KINOMEscan competition binding; details: compound 10.0 µM
[23] = biological target: MYLK3 (human) (UniProt Q32MK0); experiment: KINOMEscan competition binding; details: compound 10.0 µM
[24] = biological target: MYLK4 (human) (UniProt Q86YV6); experiment: KINOMEscan competition binding; details: compound 10.0 µM
[25] = biological target: PIK3C2B (human) (UniProt O00750); experiment: KINOMEscan competition binding; details: compound 10.0 µM
[26] = biological target: PIK3CD (human) (UniProt O00329); experiment: KINOMEscan competition binding; details: compound 10.0 µM
[27] = biological target: PIK3CG (human) (UniProt P48736); experiment: KINOMEscan competition binding; details: compound 10.0 µM
[28] = biological target: PIM1 (human) (UniProt P11309); experiment: KINOMEscan competition binding; details: compound 10.0 µM
[29] = biological target: PIM2 (human) (UniProt Q9P1W9); experiment: KINOMEscan competition binding; details: compound 10.0 µM
[30] = biological target: PIM3 (human) (UniProt Q86V86); experiment: KINOMEscan competition binding; details: compound 10.0 µM
[31] = biological target: RIPK2 (human) (UniProt O43353); experiment: KINOMEscan competition binding; details: compound 10.0 µM
[32] = biological target: RPS6KA4 KD2 (human) (UniProt O75676); experiment: KINOMEscan competition binding; details: compound 10.0 µM
[33] = biological target: RPS6KA6 KD2 (human) (UniProt Q9UK32); experiment: KINOMEscan competition binding; details: compound 10.0 µM
[34] = biological target: STK17A (human) (UniProt Q9UEE5); experiment: KINOMEscan competition binding; details: compound 10.0 µM
[35] = biological target: STK17B (human) (UniProt O94768); experiment: KINOMEscan competition binding; details: compound 10.0 µM
[36] = biological target: TAOK1 (human) (UniProt Q7L7X3); experiment: KINOMEscan competition binding; details: compound 10.0 µM
[37] = biological target: TEK (human) (UniProt Q02763); experiment: KINOMEscan competition binding; details: compound 10.0 µM
[38] = biological target: TIE1 (human) (UniProt P35590); experiment: KINOMEscan competition binding; details: compound 10.0 µM
[39] = biological target: TYK2 JH2 pseudokinase (human) (UniProt P29597); experiment: KINOMEscan competition binding; details: compound 10.0 µM
[40] = biological target: PIM1 (human) (UniProt P11309); experiment: SelectScreen, TR FRET
[41] = biological target: PIM2 (human) (UniProt Q9P1W9); experiment: SelectScreen, TR FRET
[42] = biological target: CAMK2D (human) (UniProt Q13557); experiment: KINOMEscan competition binding; details: compound 10.0 µM
[43] = biological target: DCLK1 (human) (UniProt O15075); experiment: KINOMEscan competition binding; details: compound 10.0 µM
[44] = biological target: PLK1 (human) (UniProt P53350); experiment: KINOMEscan competition binding; details: compound 10.0 µM
[45] = biological target: RPS6KA2 KD2 (human) (UniProt Q15349); experiment: KINOMEscan competition binding; details: compound 10.0 µM
[46] = biological target: STK33 (human) (UniProt Q9BYT3); experiment: KINOMEscan competition binding; details: compound 10.0 µM
[47] = biological target: TNK1 (human) (UniProt Q13470); experiment: KINOMEscan competition binding; details: compound 10.0 µM
[48] = biological target: TTK (human) (UniProt P33981); experiment: KINOMEscan competition binding; details: for kinase still bound, per cent of control: compound 10.0 µM
[49] = biological target: DCLK2 (human) (UniProt Q8N568); experiment: SelectScreen, TR FRET
[50] = biological target: TTK (human) (UniProt P33981); experiment: SelectScreen, TR FRET
[51] = biological target: BRAF (human) (UniProt P15056); experiment: KINOMEscan competition binding; details: compound 10.0 µM
[52] = biological target: CDK16 (human) (UniProt Q00536); experiment: KINOMEscan competition binding; details: compound 10.0 µM
[53] = biological target: CDK3 (human) (UniProt Q00526); experiment: KINOMEscan competition binding; details: compound 10.0 µM
[54] = biological target: CDK5 (human) (UniProt Q00535); experiment: KINOMEscan competition binding; details: compound 10.0 µM
[55] = biological target: CDK7 (human) (UniProt P50613); experiment: KINOMEscan competition binding; details: compound 10.0 µM
[56] = biological target: GSK3A (human) (UniProt P49840); experiment: KINOMEscan competition binding; details: compound 10.0 µM
[57] = biological target: MAPK12 (human) (UniProt P53778); experiment: KINOMEscan competition binding; details: compound 10.0 µM
[58] = biological target: NLK (human) (UniProt Q9UBE8); experiment: KINOMEscan competition binding; details: compound 10.0 µM
[59] = biological target: PLK4 (human) (UniProt O00444); experiment: KINOMEscan competition binding; details: compound 10.0 µM
[60] = biological target: TAOK3 (human) (UniProt Q9H2K8); experiment: KINOMEscan competition binding; details: compound 10.0 µM
[61] = biological target: TGFBR2 (human) (UniProt P37173); experiment: KINOMEscan competition binding; details: compound 10.0 µM

Sequence of TTK (human) (P33981 whole entry, looked up): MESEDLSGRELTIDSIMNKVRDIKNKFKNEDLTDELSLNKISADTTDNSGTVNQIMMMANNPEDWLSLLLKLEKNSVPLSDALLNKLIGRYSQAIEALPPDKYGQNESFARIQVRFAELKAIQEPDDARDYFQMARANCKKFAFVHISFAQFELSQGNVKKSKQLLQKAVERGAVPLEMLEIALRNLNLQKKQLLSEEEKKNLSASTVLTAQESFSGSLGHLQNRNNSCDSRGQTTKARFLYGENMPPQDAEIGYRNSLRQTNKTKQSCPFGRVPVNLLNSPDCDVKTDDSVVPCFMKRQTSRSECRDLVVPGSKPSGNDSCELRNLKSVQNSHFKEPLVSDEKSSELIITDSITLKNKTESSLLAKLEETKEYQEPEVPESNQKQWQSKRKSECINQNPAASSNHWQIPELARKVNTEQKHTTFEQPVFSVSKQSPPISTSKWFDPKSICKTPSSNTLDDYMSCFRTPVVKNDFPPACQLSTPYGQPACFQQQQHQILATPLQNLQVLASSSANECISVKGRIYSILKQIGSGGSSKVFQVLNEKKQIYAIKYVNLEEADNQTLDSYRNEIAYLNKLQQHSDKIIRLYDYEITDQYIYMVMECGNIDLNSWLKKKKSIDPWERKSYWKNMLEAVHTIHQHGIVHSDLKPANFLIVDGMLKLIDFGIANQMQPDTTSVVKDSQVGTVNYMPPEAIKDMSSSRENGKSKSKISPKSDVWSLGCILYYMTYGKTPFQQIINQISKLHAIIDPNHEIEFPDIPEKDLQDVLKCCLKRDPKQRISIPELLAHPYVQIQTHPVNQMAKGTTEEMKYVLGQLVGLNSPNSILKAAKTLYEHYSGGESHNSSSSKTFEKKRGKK
Sequence of PIM1 (human) (P11309 whole entry, looked up): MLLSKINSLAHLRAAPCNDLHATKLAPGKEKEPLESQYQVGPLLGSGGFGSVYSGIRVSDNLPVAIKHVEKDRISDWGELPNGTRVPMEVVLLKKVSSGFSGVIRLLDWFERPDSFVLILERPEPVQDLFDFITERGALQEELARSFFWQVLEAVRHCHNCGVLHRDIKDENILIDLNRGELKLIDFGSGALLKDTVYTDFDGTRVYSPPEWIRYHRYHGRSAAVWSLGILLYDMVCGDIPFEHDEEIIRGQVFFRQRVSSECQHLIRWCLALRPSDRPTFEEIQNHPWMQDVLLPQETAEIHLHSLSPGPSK
Sequence of PIM2 (human) (Q9P1W9 whole entry, looked up): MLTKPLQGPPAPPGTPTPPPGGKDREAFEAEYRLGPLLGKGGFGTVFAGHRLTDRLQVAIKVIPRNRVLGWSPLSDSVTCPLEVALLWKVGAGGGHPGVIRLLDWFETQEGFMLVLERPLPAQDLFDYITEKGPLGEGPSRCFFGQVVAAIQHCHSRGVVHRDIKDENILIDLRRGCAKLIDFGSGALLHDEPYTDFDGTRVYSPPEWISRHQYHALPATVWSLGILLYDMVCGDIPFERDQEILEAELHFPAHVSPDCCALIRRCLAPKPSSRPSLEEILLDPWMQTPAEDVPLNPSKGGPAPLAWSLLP
Sequence of MAPK15 (human) (Q8TD08 whole entry, looked up): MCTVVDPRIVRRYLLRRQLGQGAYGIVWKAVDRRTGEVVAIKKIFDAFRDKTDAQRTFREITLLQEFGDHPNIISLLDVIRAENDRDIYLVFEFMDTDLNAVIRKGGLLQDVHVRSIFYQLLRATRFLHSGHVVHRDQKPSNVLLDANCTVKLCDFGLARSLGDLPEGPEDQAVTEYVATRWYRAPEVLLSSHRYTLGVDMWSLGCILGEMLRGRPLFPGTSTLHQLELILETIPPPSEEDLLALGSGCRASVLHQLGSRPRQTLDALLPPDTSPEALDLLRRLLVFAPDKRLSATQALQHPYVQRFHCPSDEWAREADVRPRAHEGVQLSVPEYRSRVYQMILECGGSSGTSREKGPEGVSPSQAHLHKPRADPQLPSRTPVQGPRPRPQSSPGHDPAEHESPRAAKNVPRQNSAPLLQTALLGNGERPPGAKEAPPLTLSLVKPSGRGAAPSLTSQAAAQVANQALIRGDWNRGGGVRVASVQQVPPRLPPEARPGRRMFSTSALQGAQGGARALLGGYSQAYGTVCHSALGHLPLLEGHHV
Sequence of DAPK3 (human) (O43293 whole entry, looked up): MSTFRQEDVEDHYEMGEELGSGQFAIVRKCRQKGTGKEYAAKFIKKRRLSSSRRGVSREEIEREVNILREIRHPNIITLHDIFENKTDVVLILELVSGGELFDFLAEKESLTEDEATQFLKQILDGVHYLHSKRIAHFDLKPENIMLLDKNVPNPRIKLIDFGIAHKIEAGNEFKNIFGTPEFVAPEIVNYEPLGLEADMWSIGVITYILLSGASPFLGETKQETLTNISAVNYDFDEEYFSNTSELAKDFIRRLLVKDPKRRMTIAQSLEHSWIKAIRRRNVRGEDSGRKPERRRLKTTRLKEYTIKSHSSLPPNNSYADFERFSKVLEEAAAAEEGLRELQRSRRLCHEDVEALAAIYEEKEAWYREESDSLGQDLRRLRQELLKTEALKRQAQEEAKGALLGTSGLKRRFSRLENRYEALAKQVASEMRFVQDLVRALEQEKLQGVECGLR
Sequence of ACVR2B (human) (Q13705 whole entry, looked up): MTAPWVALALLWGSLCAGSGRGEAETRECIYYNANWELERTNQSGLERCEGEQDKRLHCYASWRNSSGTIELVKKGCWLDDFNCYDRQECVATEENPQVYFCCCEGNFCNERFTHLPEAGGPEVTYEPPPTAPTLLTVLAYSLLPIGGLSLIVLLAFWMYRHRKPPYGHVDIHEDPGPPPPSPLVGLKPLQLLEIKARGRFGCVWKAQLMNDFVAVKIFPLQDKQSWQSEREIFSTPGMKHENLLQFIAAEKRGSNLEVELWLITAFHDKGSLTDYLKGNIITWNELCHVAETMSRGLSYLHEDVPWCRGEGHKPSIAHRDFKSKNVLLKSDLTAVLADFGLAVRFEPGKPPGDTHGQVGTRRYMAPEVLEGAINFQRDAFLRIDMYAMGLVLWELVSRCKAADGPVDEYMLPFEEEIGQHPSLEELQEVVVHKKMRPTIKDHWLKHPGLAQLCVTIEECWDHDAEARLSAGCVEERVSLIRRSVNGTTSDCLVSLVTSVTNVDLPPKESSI
Sequence of STK17A (human) (Q9UEE5 whole entry, looked up): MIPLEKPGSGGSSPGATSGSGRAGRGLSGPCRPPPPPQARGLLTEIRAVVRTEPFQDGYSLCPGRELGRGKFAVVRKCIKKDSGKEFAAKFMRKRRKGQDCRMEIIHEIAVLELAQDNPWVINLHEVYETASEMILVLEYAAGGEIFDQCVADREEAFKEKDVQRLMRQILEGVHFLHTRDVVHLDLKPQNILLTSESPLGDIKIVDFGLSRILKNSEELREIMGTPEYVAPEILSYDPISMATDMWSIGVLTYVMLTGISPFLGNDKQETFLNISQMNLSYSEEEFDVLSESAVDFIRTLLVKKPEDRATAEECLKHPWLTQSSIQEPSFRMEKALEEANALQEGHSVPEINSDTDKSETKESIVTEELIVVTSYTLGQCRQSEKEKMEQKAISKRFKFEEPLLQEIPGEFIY
Sequence of GAK (human) (O14976 whole entry, looked up): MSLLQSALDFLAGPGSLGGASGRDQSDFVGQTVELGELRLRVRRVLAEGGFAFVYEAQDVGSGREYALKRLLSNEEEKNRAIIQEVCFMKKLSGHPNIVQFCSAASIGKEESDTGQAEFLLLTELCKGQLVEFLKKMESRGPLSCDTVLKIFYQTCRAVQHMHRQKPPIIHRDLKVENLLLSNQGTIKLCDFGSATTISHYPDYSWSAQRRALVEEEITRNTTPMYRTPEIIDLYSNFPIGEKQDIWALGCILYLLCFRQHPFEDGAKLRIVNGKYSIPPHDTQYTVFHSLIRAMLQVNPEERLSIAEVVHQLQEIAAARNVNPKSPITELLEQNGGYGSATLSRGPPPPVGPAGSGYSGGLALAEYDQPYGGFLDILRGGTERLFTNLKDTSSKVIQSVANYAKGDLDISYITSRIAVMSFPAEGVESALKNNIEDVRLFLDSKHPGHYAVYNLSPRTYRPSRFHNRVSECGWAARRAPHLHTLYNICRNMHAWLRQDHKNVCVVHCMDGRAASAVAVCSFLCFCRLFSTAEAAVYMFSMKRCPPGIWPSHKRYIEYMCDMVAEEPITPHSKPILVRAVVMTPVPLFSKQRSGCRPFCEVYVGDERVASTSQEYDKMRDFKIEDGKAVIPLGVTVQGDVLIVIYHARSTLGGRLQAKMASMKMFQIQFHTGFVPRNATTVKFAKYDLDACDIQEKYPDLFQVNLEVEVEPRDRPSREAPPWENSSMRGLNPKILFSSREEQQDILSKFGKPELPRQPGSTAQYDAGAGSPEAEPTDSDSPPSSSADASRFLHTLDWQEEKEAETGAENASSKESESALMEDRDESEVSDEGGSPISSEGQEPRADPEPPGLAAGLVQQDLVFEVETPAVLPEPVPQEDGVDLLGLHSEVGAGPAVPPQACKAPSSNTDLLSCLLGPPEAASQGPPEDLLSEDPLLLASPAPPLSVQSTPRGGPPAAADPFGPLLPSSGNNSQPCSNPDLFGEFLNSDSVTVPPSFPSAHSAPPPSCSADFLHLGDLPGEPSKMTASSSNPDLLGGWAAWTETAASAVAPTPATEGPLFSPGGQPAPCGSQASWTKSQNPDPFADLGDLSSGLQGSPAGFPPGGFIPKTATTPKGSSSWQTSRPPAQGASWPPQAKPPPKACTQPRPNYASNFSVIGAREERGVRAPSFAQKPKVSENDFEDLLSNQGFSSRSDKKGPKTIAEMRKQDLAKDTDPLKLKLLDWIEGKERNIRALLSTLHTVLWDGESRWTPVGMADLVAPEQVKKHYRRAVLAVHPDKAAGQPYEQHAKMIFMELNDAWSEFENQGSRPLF
Sequence of CDK3 (human) (Q00526 whole entry, looked up): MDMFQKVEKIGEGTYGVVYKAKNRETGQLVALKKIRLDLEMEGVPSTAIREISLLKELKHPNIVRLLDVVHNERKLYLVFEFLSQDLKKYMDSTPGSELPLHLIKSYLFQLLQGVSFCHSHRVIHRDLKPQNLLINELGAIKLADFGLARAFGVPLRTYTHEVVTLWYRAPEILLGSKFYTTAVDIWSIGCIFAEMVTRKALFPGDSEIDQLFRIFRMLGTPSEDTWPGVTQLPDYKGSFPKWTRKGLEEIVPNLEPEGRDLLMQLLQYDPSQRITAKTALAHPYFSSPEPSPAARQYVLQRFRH

O=C1NC(=O)/C(=C/c2ccc(-c3ccc(F)cc3O)o2)S1
kinase still bound, per cent of control [1]: 35% | kinase still bound, per cent of control [2]: 9.9% | kinase still bound, per cent of control [3]: 12% | kinase still bound, per cent of control [4]: 0.2% | kinase still bound, per cent of control [5]: 27% | kinase still bound, per cent of control [6]: 4.4% | kinase still bound, per cent of control [7]: 4.2% | kinase still bound, per cent of control [8]: 10% | kinase still bound, per cent of control [9]: 12% | kinase still bound, per cent of control [10]: 25% | kinase still bound, per cent of control [11]: 29% | kinase still bound, per cent of control [12]: 1.9% | kinase still bound, per cent of control [13]: 9.8% | kinase still bound, per cent of control [14]: 5.8% | kinase still bound, per cent of control [15]: 15% | kinase still bound, per cent of control [16]: 19% | kinase still bound, per cent of control [17]: 20% | kinase still bound, per cent of control [18]: 28% | kinase still bound, per cent of control [19]: 14% | kinase still bound, per cent of control [20]: 9.3% | kinase still bound, per cent of control [21]: 5% | kinase still bound, per cent of control [22]: 3.6% | kinase still bound, per cent of control [23]: 29% | kinase still bound, per cent of control [24]: 17% | kinase still bound, per cent of control [25]: 19% | kinase still bound, per cent of control [26]: 27% | kinase still bound, per cent of control [27]: 4% | kinase still bound, per cent of control [28]: 2.7% | kinase still bound, per cent of control [29]: 2% | kinase still bound, per cent of control [30]: 4.8% | kinase still bound, per cent of control [31]: 32% | kinase still bound, per cent of control [32]: 22% | kinase still bound, per cent of control [33]: 18% | kinase still bound, per cent of control [34]: 1.5% | kinase still bound, per cent of control [35]: 3.3% | kinase still bound, per cent of control [36]: 8.4% | kinase still bound, per cent of control [37]: 2.1% | kinase still bound, per cent of control [38]: 25% | kinase still bound, per cent of control [39]: 33% | IC50 [40]: 94 nM | IC50 [41]: 158 nM

CCOc1cc(N2CCC(O)CC2)ccc1Nc1ncc2c(n1)N(C1CCCC1)CCC(=O)N2CC
kinase still bound, per cent of control [42]: 27% | kinase still bound, per cent of control [43]: 27% | kinase still bound, per cent of control [20]: 8.2% | kinase still bound, per cent of control [44]: 1.2% | kinase still bound, per cent of control [45]: 13% | kinase still bound, per cent of control [46]: 22% | kinase still bound, per cent of control [47]: 33% | Kd [48]: 106 nM | kinase still bound, per cent of control [48]: 3.9% | IC50 [49]: 556 nM | IC50 [50]: 1010 nM

N=C1NC(=O)/C(=C/c2ccc(-c3ccc(S(N)(=O)=O)cc3)o2)S1
kinase still bound, per cent of control [2]: 30% | kinase still bound, per cent of control [51]: 24% | kinase still bound, per cent of control [52]: 1.2% | kinase still bound, per cent of control [53]: 17% | kinase still bound, per cent of control [54]: 9.6% | kinase still bound, per cent of control [55]: 23% | kinase still bound, per cent of control [8]: 3.5% | kinase still bound, per cent of control [9]: 16% | kinase still bound, per cent of control [10]: 24% | kinase still bound, per cent of control [56]: 9.9% | kinase still bound, per cent of control [21]: 0.65% | kinase still bound, per cent of control [57]: 12% | kinase still bound, per cent of control [22]: 5.4% | kinase still bound, per cent of control [24]: 6.7% | kinase still bound, per cent of control [58]: 18% | kinase still bound, per cent of control [28]: 3% | kinase still bound, per cent of control [29]: 1.8% | kinase still bound, per cent of control [30]: 4.8% | kinase still bound, per cent of control [59]: 15% | kinase still bound, per cent of control [34]: 1.1% | kinase still bound, per cent of control [35]: 6% | kinase still bound, per cent of control [36]: 2.4% | kinase still bound, per cent of control [60]: 29% | kinase still bound, per cent of control [61]: 22% | kinase still bound, per cent of control [48]: 24% | IC50 [40]: 573 nM | IC50 [41]: 501 nM
